Molecular target: T1, human TLR8 (Homo sapiens, UniProt Q9NR97)
T1 construct: host or cells: HEK293 (HEK-Blue hTLR8)
T1 sequence (Q9NR97 27-1041): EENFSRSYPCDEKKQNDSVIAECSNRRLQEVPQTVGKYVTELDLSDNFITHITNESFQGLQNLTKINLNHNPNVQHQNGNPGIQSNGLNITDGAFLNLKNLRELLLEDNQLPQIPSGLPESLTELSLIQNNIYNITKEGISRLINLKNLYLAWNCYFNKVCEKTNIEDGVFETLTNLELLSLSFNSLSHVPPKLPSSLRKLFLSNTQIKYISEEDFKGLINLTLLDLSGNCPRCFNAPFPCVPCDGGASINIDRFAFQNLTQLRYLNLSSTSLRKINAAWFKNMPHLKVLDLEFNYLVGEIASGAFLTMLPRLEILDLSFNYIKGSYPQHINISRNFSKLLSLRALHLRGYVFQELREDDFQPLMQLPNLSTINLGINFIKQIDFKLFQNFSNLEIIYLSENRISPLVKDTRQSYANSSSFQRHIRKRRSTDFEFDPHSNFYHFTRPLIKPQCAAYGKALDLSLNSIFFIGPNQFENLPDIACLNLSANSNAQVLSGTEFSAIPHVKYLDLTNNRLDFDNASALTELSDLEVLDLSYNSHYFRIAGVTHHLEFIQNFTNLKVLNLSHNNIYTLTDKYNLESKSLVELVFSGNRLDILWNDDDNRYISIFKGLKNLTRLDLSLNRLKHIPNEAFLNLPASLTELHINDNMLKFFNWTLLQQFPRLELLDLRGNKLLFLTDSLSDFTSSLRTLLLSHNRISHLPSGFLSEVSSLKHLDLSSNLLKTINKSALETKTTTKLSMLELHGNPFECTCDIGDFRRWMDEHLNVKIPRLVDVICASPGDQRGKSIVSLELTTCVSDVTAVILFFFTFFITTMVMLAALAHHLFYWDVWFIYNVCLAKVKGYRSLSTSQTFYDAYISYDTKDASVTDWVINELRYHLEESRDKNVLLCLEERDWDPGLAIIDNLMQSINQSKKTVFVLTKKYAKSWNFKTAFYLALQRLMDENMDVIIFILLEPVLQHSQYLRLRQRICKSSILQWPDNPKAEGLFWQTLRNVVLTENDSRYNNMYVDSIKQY
Test: HEK293-Blue-hTLR-8 cells assay (SEAP reporter, R848 stimulation)
Assay type: cell-based
Details: HEK293-Blue-hTLR8 cells, R848, 20 hrs; read-out: HEK/hTLR8 IC50
In short: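 Antagonism read as reduced R848-induced SEAP reporter secretion, detected by QUANTI-Blue absorbance at 620–655 nm after 2 h. Reporter cells were exposed to compound dilutions in DMEM/10% FBS, 1% DMSO, for 20 h at 37° C.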

IC50 [nM] | Structure (SMILES)
50 | C[C@@H]1CN(c2ccc(C#N)n3ncc(F)c23)C[C@H](CN2CCN(c3ccc(N4CC(C)(N)C4)nc3)CC2)O1 [Example 154, 4-[(2S,6R)-2-[[4-[6-(3-amino-3-methyl-azetidin-1-yl)-3-pyridyl]piperazin-1-yl]methyl]-6-methyl-morpholin-4-yl]-3-fluoro-pyrazolo[1,5-a]pyridine-7-carbonitrile]
8 | [2H]c1ccc2c(N3C[C@H](CN4CCN(c5cccc(N6CC(C)(N)C6)n5)CC4)O[C@H](C)C3)ccc(C#N)c2n1 [Example 155, 5-[(2S,6R)-2-[[4-[6-(3-amino-3-methyl-azetidin-1-yl)-2-pyridyl]piperazin-1-yl]methyl]-6-methyl-morpholin-4-yl]-2-deuterio-quinoline-8-carbonitrile]
24 | [2H]c1ccc2c(N3C[C@H](CN4CC(O)(c5ccc(N6CC(C)(N)C6)cc5)C4)O[C@H](C)C3)ccc(C#N)c2n1 [Example 156, 5-[(2S,6R)-2-[[3-[4-(3-amino-3-methyl-azetidin-1-yl)phenyl]-3-hydroxy-azetidin-1-yl]methyl]-6-methyl-morpholin-4-yl]-2-deuterio-quinoline-8-carbonitrile]
118 | C[C@@H]1CN(c2ccc(C#N)n3nccc23)C[C@H](CN2CC(c3ccc(N4CC(C)(N)C4)nc3)C2)O1 [Example 157, 4-[(2S,6R)-2-[[3-[6-(3-amino-3-methyl-azetidin-1-yl)-3-pyridyl]azetidin-1-yl]methyl]-6-methyl-morpholin-4-yl]pyrazolo[1,5-a]pyridine-7-carbonitrile]
37 | C[C@@H]1CN(c2ccc(C#N)n3ncc(F)c23)C[C@H](CN2CC(c3ccc(N4CC(C)(N)C4)nc3)C2)O1 [Example 158, 4-[(2S,6R)-2-[[3-[6-(3-amino-3-methyl-azetidin-1-yl)-3-pyridyl]azetidin-1-yl]methyl]-6-methyl-morpholin-4-yl]-3-fluoro-pyrazolo[1,5-a]pyridine-7-carbonitrile]
52 | [2H]c1ccc2c(N3C[C@H](CN4CC(c5cccc(N6CC(C)(N)C6)n5)C4)O[C@H](C)C3)ccc(C#N)c2n1 [Example 159, 5-[(2S,6R)-2-[[3-[6-(3-amino-3-methyl-azetidin-1-yl)-2-pyridyl]azetidin-1-yl]methyl]-6-methyl-morpholin-4-yl]-2-deuterio-quinoline-8-carbonitrile]
68 | C[C@@H]1CN(c2ccc(C#N)n3ncc(F)c23)C[C@H](CN2CC(c3ccc(N4CC(C)(N)C4)cc3)C2)O1 [Example 160, 4-[(2S,6R)-2-[[3-[4-(3-amino-3-methyl-azetidin-1-yl)phenyl]azetidin-1-yl]methyl]-6-methyl-morpholin-4-yl]-3-fluoro-pyrazolo[1,5-a]pyridine-7-carbonitrile]
8 | [2H]c1ccc2c(N3C[C@H](CN4CCN(c5ccc(N6CC7(CN(C)C7)C6)nc5)CC4)O[C@H](C)C3)ccc(C#N)c2n1 [Example 161, 2-deuterio-5-[(2R,6S)-2-methyl-6-[[4-[6-(6-methyl-2,6-diazaspiro[3.3]heptan-2-yl)-3-pyridyl]piperazin-1-yl]methyl]morpholin-4-yl]quinoline-8-carbonitrile]
11 | [2H]c1ccc2c(N3C[C@H](CN4CCN(c5ccc(N[C@H]6CNC[C@H]6F)nc5)CC4)O[C@H](C)C3)ccc(C#N)c2n1 [Example 162, 2-deuterio-5-[(2S,6R)-2-[[4-[6-[[(3S,4R)-4-fluoropyrrolidin-3-yl]amino]-3-pyridyl]piperazin-1-yl]methyl]-6-methyl-morpholin-4-yl]quinoline-8-carbonitrile]
68 | C[C@@H]1CN(c2ccc(C#N)n3nccc23)C[C@H](CN2CC(c3ccc(N4CC(C)(N)C4)cc3)C2)O1 [Example 163, 4-[(2S,6R)-2-[[3-[4-(3-amino-3-methyl-azetidin-1-yl)phenyl]azetidin-1-yl]methyl]-6-methyl-morpholin-4-yl]pyrazolo[1,5-a]pyridine-7-carbonitrile]
30 | CO[C@@H]1CN(c2ccc(C3CN(C[C@H]4CN(c5ccc(C#N)n6ncc(F)c56)C[C@@H](C)O4)C3)cn2)C[C@H]1N [Example 164, 4-[(2S,6R)-2-[[3-[6-[(3R,4R)-3-amino-4-methoxy-pyrrolidin-1-yl]-3-pyridyl]azetidin-1-yl]methyl]-6-methyl-morpholin-4-yl]-3-fluoro-pyrazolo[1,5-a]pyridine-7-carbonitrile]
92 | C[C@@H]1CN(c2ccc(C#N)n3ncc(F)c23)C[C@H](CN2CC(c3ccc(N4C[C@@H]5C[C@H]4CN5)nc3)C2)O1 [Example 165, 4-[(2S,6R)-2-[[3-[6-[(1S,4S)-2,5-diazabicyclo[2.2.1]heptan-2-yl]-3-pyridyl]azetidin-1-yl]methyl]-6-methyl-morpholin-4-yl]-3-fluoro-pyrazolo[1,5-a]pyridine-7-carbonitrile]
31 | CO[C@@H]1CN(c2ccc(N3CCN(C[C@H]4CN(c5ccc(C#N)n6ncc(F)c56)C[C@@H](C)O4)CC3)cn2)C[C@H]1N [Example 166, 4-[(2S,6R)-2-[[4-[6-[(3R,4R)-3-amino-4-methoxy-pyrrolidin-1-yl]-3-pyridyl]piperazin-1-yl]methyl]-6-methyl-morpholin-4-yl]-3-fluoro-pyrazolo[1,5-a]pyridine-7-carbonitrile]
